Data: PubChem BioAssay (NCI)
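Exposure lasted 48 hours, with cells grown in 96-well plates and compounds tested at five concentrations. Abbreviation: GI50, concentration required for 50% inhibition of growth. TGI: total growth inhibition.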

Assays:
Experiment in all cases: growth of human tumour cells (NCI), 48 h
[1] = tested on: HS 578T breast
[2] = tested on: SF-268 CNS
[3] = tested on: DU-145 prostate
[4] = tested on: UACC-62 melanoma
[5] = tested on: BT-549 breast
[6] = tested on: SR leukemia
[7] = tested on: U251 CNS
[8] = tested on: HOP-92 NSCLC

Row | SMILES | GI50 [1] | TGI [1] | GI50 [2] | TGI [2] | GI50 [3] | TGI [3] | GI50 [4] | TGI [4] | TGI [5] | GI50 [6] | TGI [6] | GI50 [7] | TGI [7] | TGI [8] | GI50 [5] | GI50 [8]
1 | CC(=O)C1CCC2C3CC=C4CC(SC(=N)N)CCC4(C)C3CCC12C (stereo not drawn) | 2.56 µM | 11.3 µM | 3.11 µM | 16.1 µM | 3.13 µM | 10.3 µM | – | – | – | – | – | – | – | – | – | –
2 | O=c1c(-c2ccc(O)cc2)coc2cc(OC3OC(CO)C(O)C(O)C3O)cc(O)c12 (stereo not drawn) | – | > 100 µM | > 10 µM | > 100 µM | – | > 100 µM | > 10 µM | > 100 µM | > 100 µM | > 10 µM | > 100 µM | > 100 µM | > 100 µM | – | – | –
3 | COC(=O)C1=C(C(=O)OC)C2OC1c1cc3ccccc3cc12 | – | 43.6 µM | – | 34.9 µM | – | 21.6 µM | – | 27.9 µM | 12 µM | – | 3.55 µM | – | 32.7 µM | 6.34 µM | – | –
4 | CCOC(=O)c1csc(NC(=O)COc2cccc(/C=C3\CSc4ccccc4C3=O)c2)n1 | 1.45 µM | 7.36 µM | 0.204 µM | 0.502 µM | 0.409 µM | 0.932 µM | 2.61 µM | 7.02 µM | 6.22 µM | – | – | 0.585 µM | 1.31 µM | – | 2.29 µM | –
5 | COc1cc(/C=C\c2cc(/C=C\c3ccc(O)c(OC)c3)n(C(=O)CNc3ccc(Cl)cc3)n2)ccc1O | 4.36 µM | > 100 µM | 2.49 µM | 14.9 µM | 3.25 µM | 12.3 µM | 2.73 µM | 9.2 µM | 47 µM | 0.341 µM | 7.14 µM | 2.94 µM | 11.8 µM | 24.2 µM | 3 µM | 5.65 µM
6 | COC(=O)C1=C(O)[C@H](C(=O)OC)[C@]2(O)[C@@H](C(=O)OC)[C@H]1C[C@@H](c1ccc(OC(=O)/C=C/c3ccco3)cc1)[C@@H]2C(=O)OC | > 100 µM | > 100 µM | 40.8 µM | > 100 µM | – | – | 4.09 µM | 18.9 µM | 49.4 µM | – | – | 10.3 µM | 23.8 µM | 48.3 µM | 22.5 µM | 18.1 µM
7 | CCOc1c(C#N)c2c(N)ncnc2n1C1OC(CO)C(O)C1O (stereo not drawn) | 2.12 µM | 14 µM | 3.37 µM | 65.4 µM | 2.72 µM | 11.8 µM | 2.76 µM | 10 µM | 19 µM | 1.3 µM | 5.5 µM | 3.21 µM | > 100 µM | > 100 µM | 2.58 µM | 2.82 µM
8 | C1CCN2CC3CCCN4CCCC(C2C1)C34 (stereo not drawn) | – | > 100 µM | – | > 100 µM | – | > 100 µM | – | > 100 µM | > 100 µM | – | > 100 µM | – | > 100 µM | > 100 µM | – | –
9 | CC(C)CCC(=O)[C@@H](C)[C@H]1[C@@H](OC2OCC(O)C(O)C2NS(C)(=O)=O)C[C@H]2[C@@H]3CC=C4C[C@@H](O)CC[C@]4(C)[C@H]3CC[C@]12C (stereo partly drawn) | 0.423 µM | 3.41 µM | 1.25 µM | 6.99 µM | 3.42 µM | 20.4 µM | 0.79 µM | 1.95 µM | 4.93 µM | 1.03 µM | 8.39 µM | 0.901 µM | 7.8 µM | 10.6 µM | 0.245 µM | 3.02 µM
10 | COC(=O)C(=O)C(C(=O)C(=O)Nc1ccc(C)cc1)c1nc2ccc(C(=O)c3ccccc3)cc2[nH]c1=O (stereo not drawn) | – | > 100 µM | – | > 100 µM | – | – | – | > 100 µM | > 100 µM | – | – | – | > 100 µM | > 100 µM | – | –
11 | CCc1nc2cc(/C=C/C(=O)NO)ccc2c(=O)n1CCc1ccc(F)cc1 | 2.26 µM | > 100 µM | 2.14 µM | 5.98 µM | 1.94 µM | 8.67 µM | – | – | 9.14 µM | 1.74 µM | > 100 µM | 1.31 µM | 2.91 µM | 6.28 µM | 2.84 µM | 2.45 µM
12 | CC1=NN(C(=O)c2ccncc2)C(=O)C1N=Nc1ccc2ccccc2c1 (stereo not drawn) | – | > 100 µM | – | > 100 µM | – | > 100 µM | – | > 100 µM | > 100 µM | – | > 31.7 µM | – | > 100 µM | > 100 µM | – | –
13 | Cc1nnc(-c2ccc(C)c(-c3ccc(C(=O)NCc4ccc(Cl)cc4)cc3)c2)o1 | 10.7 µM | > 25 µM | 12.9 µM | > 25 µM | 16.2 µM | > 25 µM | 8.21 µM | > 25 µM | > 25 µM | 11.9 µM | > 25 µM | > 25 µM | > 25 µM | > 25 µM | 14.7 µM | 3.26 µM
14 | CC(=O)O[C@H]1C(=O)[C@@]2(C)[C@H]([C@H](OC(=O)c3ccccc3)[C@@]3(O)C[C@H](O)C(C)=C1C3(C)C)[C@]1(OC(C)=O)CO[C@@H]1C[C@@H]2O | – | 96.3 µM | – | > 100 µM | – | > 100 µM | – | > 100 µM | > 100 µM | – | > 100 µM | – | > 100 µM | > 100 µM | – | –
15 | NNC(=S)Nc1cccc(Cl)c1 | – | > 100 µM | – | > 100 µM | – | > 100 µM | – | > 100 µM | > 100 µM | – | – | – | > 100 µM | – | – | –
16 | O=S(=O)(Nc1ccc2ccccc2c1)c1ccc(-c2cnc(C3CC3)o2)cc1 | 0.811 µM | 13.2 µM | 3.44 µM | 24.5 µM | 2.96 µM | 20.4 µM | 0.914 µM | 14.5 µM | 19.3 µM | 0.377 µM | > 100 µM | 1.25 µM | 15.7 µM | 30.9 µM | 2.81 µM | 3.68 µM
17 | CN1CCN(Cc2ccc(NC(=O)c3cncc(C#Cc4cnn5ccccc45)c3)cc2C(F)(F)F)CC1 | 0.735 µM | 2.91 µM | 1.05 µM | 2.54 µM | 1.17 µM | 3.95 µM | 0.996 µM | 2.38 µM | 4.11 µM | 0.322 µM | 2.82 µM | 1.06 µM | 4.15 µM | 2.98 µM | 1.47 µM | 0.633 µM
18 | CCCN1C(=O)/C(=C/c2ccc(O)cc2)SC1=Nc1ccc(OC)cc1 | 4.48 µM | 23.3 µM | 17.3 µM | 74.9 µM | 10.3 µM | 29.5 µM | 17.6 µM | 33.7 µM | 34.9 µM | 10.4 µM | > 100 µM | 12.5 µM | 26 µM | 23.2 µM | 15.3 µM | 6.91 µM
19 | CC1CC(C)C2=NOS3=C2C1=NO3 (stereo not drawn) | – | > 100 µM | – | > 100 µM | – | > 100 µM | – | > 100 µM | – | – | > 100 µM | – | > 100 µM | > 100 µM | – | –
